The results in this text go back to patent US8658363B2, “Cell, method, and assay kit for measuring level of aryl hydrocarbon receptor transcriptional activation” (priority 2009, dated 2014).

The assay concerns the target T1, Ah receptor (Rattus norvegicus, UniProt P41738).
T1 construct: pcDNA4/V5-His B was linked with the coding region of the rat Ah receptor gene; expressed in transfected cells
T1 sequence (P41738 10-853): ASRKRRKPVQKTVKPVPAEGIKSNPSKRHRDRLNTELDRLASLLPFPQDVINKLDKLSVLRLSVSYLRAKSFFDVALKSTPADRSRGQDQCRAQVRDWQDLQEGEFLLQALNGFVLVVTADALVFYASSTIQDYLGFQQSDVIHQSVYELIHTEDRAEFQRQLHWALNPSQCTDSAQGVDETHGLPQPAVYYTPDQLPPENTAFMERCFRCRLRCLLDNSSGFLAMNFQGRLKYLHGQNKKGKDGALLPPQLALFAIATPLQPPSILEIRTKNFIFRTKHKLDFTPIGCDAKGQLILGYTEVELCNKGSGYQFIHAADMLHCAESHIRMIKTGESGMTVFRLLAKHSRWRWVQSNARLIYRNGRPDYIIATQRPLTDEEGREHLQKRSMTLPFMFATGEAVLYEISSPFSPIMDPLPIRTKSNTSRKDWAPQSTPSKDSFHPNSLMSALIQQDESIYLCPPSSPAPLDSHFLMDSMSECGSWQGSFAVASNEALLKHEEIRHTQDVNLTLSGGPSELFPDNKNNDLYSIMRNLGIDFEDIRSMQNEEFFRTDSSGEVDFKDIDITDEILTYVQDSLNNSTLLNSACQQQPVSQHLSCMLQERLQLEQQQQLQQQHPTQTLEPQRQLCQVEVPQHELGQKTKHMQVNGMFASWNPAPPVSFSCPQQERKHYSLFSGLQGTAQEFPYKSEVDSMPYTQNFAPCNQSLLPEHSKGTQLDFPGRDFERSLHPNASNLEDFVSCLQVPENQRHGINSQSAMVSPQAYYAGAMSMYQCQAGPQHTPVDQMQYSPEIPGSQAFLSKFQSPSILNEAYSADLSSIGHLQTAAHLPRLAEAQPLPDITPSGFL
As to the kind of experiment: Ah receptor transcriptional activation, luciferase reporter in recombinant N2a-SY1 cells. The class given is cell-based. The following applies: for N2a-SY1 (magnification of activation) [signal-to-noise ratio] / N2a-SY1 (LUC) compensated value: luciferase luminescence RLU divided by absorbance of β-galactosidase: 24 hours, N2a-SY1 cells. As for the experimental part:
The recombinant cells (N2a-SY1) produced in Example 4 were seeded on a 24-well plate with about 80,000 cells per well and then cultured in a […] medium of 10% serum for several hours to overnight.
Next, the medium of the recombinant cell cultured in the above manner was aspirated to remove it, and DF 1:1 mediums of 10% serum which contained a 2,3,7,8-TCDD in concentrations of 0, 0.1, 1, 10, 100 and 1000 pg/mL, respectively were each dispensed in each well with 1 mL per well to culture cells. The culturing of cells was continued, the medium was removed after 24 hours and the cells were washed once with PBS 1 mL per well. Then, 200 μL per well of a PicaGene Cell Culture Lysis Reagent Luβ (manufactured by Toyo B-Net Co., Ltd.) diluted five times was added to each well, which was then allowed to stand at room temperature for 10 minutes or more to dissolve, thereby obtaining a cell extract. The obtained cell extract was frozen-stored in a freezing chamber, this frozen-stored plate was taken out of the freezing chamber, and the cell extract was fused at room temperature. 10 μL of the fused cell extract was transferred to a black 96-well plate. Then, 100 μL per well of a PicaGene (trademark) LT210 luminescence substrate solution was dispensed in each well of the plate and mixed and then, the plate was set to a Mithras LB940 Microplate Reader (manufactured by Berthold Japan K.K.) to measure a luminescence amount continuously. Separately, 10 μL of the above cell extract was transferred to a transparent 96-well plate. 150 μL of a β-galactosidase substrate solution (ONPG substrate solution) was added to each well of the plate, which was incubated at room temperature for 5 minutes, and then, 50 μL of a reaction stop solution (aqueous […] sodium carbonate solution) was added to each well. Then, the plate was set to a micro-plate reader to measure absorbance of each well at 405 nm. Using a standard curve, the absorbance was converted into the amount of β-galactosidase (ng) in the protein extract. The results are shown by a bar graph in FIG. 4, and also in Table 1 showing each value (in the table, each value is a compensated value calculated by dividing the luminescence relative light units (RLU) of luciferase by the absorbance of β-galactosidase and bB/A means the magnification of activation [signal-to-noise ratio]).
The stable recombinant cells (N2a-SY1) produced in Example 4 were seeded on a 24-well plate with about 80,000 cells per well and cultured in a DF 1:1 medium of 10% serum for several hours to overnight.
Next, the medium of the recombinant cell cultured in the above manner was aspirated to remove it, and DF 1:1 mediums of 10% serum which contained PCB126 at concentrations of 0, 0.2, 2, 20, 200, 2000, and 20000 pg/mL respectively were dispensed in each well with 1 mL per well to culture cells. The culturing of cells was continued, the medium was removed after 24 hours and the cells were washed once with PBS 1 mL per well. Then, 200 μL per well of a PicaGene Cell Culture Lysis Reagent Luβ (manufactured by Toyo B-Net Co., Ltd.) diluted five times was added to each well, which was then allowed to stand at room temperature for 10 minutes or more to dissolve, thereby obtaining a cell extract. The obtained cell extract was frozen-stored in a freezing chamber, this frozen-stored plate was taken out of the freezing chamber, and the cell extract was fused at room temperature. 10 μL of the fused cell extract was transferred to a black 96-well plate. Then, 100 μL per well of a PicaGene (trademark) LT210 luminescence substrate solution was dispensed in each well of the plate and mixed and then, the plate was set to a Mithras LB940 Microplate Reader (manufactured by Berthold Japan K.K.) to measure a luminescence amount continuously. Separately, 10 μL of the above cell extract was transferred to a transparent 96-well plate. […]

Turning to `Clc1cc2c(cc1Cl)Oc1cc(Cl)c(Cl)cc1O2` [2,3,7,8-TCDD], the “N2a-SY1 (magnification of activation) [signal-to-noise ratio]” value (“N2a-SY1 … [signal-to-noise ratio]” below) (2,3,7,8-TCDD 0.01 pg/ml vs 0 pg/ml) was found to be 1; the “N2a-SY1 … [signal-to-noise ratio]” value (2,3,7,8-TCDD 0.1 pg/ml vs 0 pg/ml) is 1.24; the “N2a-SY1 … [signal-to-noise ratio]” value (2,3,7,8-TCDD 1 pg/ml vs 0 pg/ml) came to 1.34; the “N2a-SY1 … [signal-to-noise ratio]” value (2,3,7,8-TCDD 10 pg/ml vs 0 pg/ml) worked out at 3.43; the “N2a-SY1 … [signal-to-noise ratio]” value (2,3,7,8-TCDD 100 pg/ml vs 0 pg/ml) came to 4.88; the “N2a-SY1 … [signal-to-noise ratio]” value (2,3,7,8-TCDD 1000 pg/ml vs 0 pg/ml) came to 5.22. Moreover, the “N2a-SY1 (LUC) compensated value: luciferase luminescence RLU divided by absorbance of β-galactosidase” value (2,3,7,8-TCDD 0.01 pg/ml) came out at 1187.8; the “N2a-SY1 (LUC) compensated value: luciferase luminescence RLU divided by absorbance of β-galactosidase” value (2,3,7,8-TCDD 0.1 pg/ml) turned out to be 1451.5; the “N2a-SY1 (LUC) compensated value: luciferase luminescence RLU divided by absorbance of β-galactosidase” value (2,3,7,8-TCDD 1 pg/ml) was determined as 1577.6; the “N2a-SY1 (LUC) compensated value: luciferase luminescence RLU divided by absorbance of β-galactosidase” value (2,3,7,8-TCDD 10 pg/ml) is recorded as 4029.7; the “N2a-SY1 (LUC) compensated value: luciferase luminescence RLU divided by absorbance of β-galactosidase” value (2,3,7,8-TCDD 100 pg/ml) came to 5718.5; the “N2a-SY1 (LUC) compensated value: luciferase luminescence RLU divided by absorbance of β-galactosidase” value (2,3,7,8-TCDD 1000 pg/ml) is listed as 6132.5. Also, the “concentration in a sample that may be detected (Ah receptor transcriptional activation)” value (recombinant cell of the embodiment) was determined as 0.1 pg/mL.
For the compound `Clc1ccc(-c2cc(Cl)c(Cl)c(Cl)c2)cc1Cl` [PCB126], the “N2a-SY1 … [signal-to-noise ratio]” value runs as follows: (PCB126 0.2 pg/ml vs 0 pg/ml) 0.91; (PCB126 2 pg/ml vs 0 pg/ml) 1.15; (PCB126 20 pg/ml vs 0 pg/ml) 1.92; (PCB126 200 pg/ml vs 0 pg/ml) 2.74; (PCB126 2000 pg/ml vs 0 pg/ml) 3.08; (PCB126 20000 pg/ml vs 0 pg/ml) 3.02. Besides, the “N2a-SY1 … [signal-to-noise ratio]” value (PCB126 200000 pg/ml vs 0 pg/ml) is listed as 3.02. In addition, the “N2a-SY1 (LUC) compensated value: luciferase luminescence RLU divided by absorbance of β-galactosidase” value by setting is: (PCB126 0.2 pg/ml) 1882.6; (PCB126 2 pg/ml) 2388; (PCB126 20 pg/ml) 3991; (PCB126 200 pg/ml) 5685.8; (PCB126 2000 pg/ml) 6401.6; (PCB126 20000 pg/ml) 6264.8. Besides, where the note is “PCB126 200000 pg/ml”, the “N2a-SY1 (LUC) compensated value: luciferase luminescence RLU divided by absorbance of β-galactosidase” value stood at 6268.9.
